Reference: ChEMBL document CHEMBL4814046, “Inhibitory effects and mechanism of antifungal action of the natural cyclic depsipeptide, aureobasidin A against Cryptococcus neoformans” (Bioorg Med Chem Lett, 2021)
≈ marks a conversion by molar mass, not a printed value. Calls of active or inactive are those of the source. The calls are words filed in the database; no cut-off is given here. *1 amine or outer side, *2 acyl side, *3 side chain or, on linkers, in order; H or OH if unused. Where a SMILES comes first, the peptide text is derived from it. [ ]: non-standard residue; d: D form. X1 = CC[C@@H](C)[C@@H](O[*:1])C(=O)[*:2]; NMeVal(β-OH) = CN[C@H](C(=O)O)C(C)(C)O; NMeF = CN[C@@H](Cc1ccccc1)C(=O)O; aIle = CC[C@@H](C)[C@H](N)C(=O)O; NMeV = CN[C@H](C(=O)O)C(C)C

How the values were obtained:
Cryptococcus neoformans [1] = assay: Antifungal activity against Cryptococcus neoformans PFCC 93-589 after 2 days in absence of sorbitol by microdilution assay; type: functional; conditions: PFCC 93-589, 48 h, time 2 day
Cryptococcus neoformans [2] = assay: Induction of morphological changes in Cryptococcus neoformans PFCC 93-589 assessed as disorganization of cytoplasmic content at 2 ug/ml after 48 hrs by TEM analysis; type: functional, organism-based; conditions: dose 2.0 µg/ml
Cryptococcus neoformans [3] = assay: Downregulation of Cxt1p gene expression in Cryptococcus neoformans PFCC 93-589 at 2 ug/ml by SYBR green based RT-PCR analysis relative to control; type: functional; conditions: dose 2.0 µg/ml
Cryptococcus neoformans [4] = assay: Fungicidal activity against Cryptococcus neoformans PFCC 93-589 by broth microdilution assay; type: functional
Cryptococcus neoformans [5] = assay: Antifungal activity against Cryptococcus neoformans PFCC 93-589 assessed as TOS production at 0.5 times MIC incubated for 10 mins measured per mg of protein by colorimetric method (reference value: 1.04 umol); type: functional
Cryptococcus neoformans [6] = assay: Inhibition of ergosterol biosynthesis in Cryptococcus neoformans PFCC 93-589 cell membrane assessed as ergosterol content at 0.5 times MIC incubated for 48 hrs by UV-visible spectrophotometric analysis (reference value: 0.134); type: functional, cell membranes
Cryptococcus neoformans [7] = assay: Antifungal activity against Cryptococcus neoformans PFCC 93-589 assessed as TOS production at 2 times MIC incubated for 10 mins measured per mg of protein by colorimetric method (reference value: 1.63 umol); type: functional
Pichia kudriavzevii = assay: Antifungal activity against Candida krusei incubated for 24 hrs by broth microdilution method; type: functional
Cryptococcus neoformans [8] = assay: Induction of morphological changes in Cryptococcus neoformans PFCC 93-589 assessed as deposition of lipid globules at 2 ug/ml after 48 hrs by TEM analysis; type: functional, organism-based; conditions: dose 2.0 µg/ml
Candida tropicalis = assay: Antifungal activity against Candida tropicalis incubated for 24 hrs by broth microdilution method; type: functional
Cryptococcus neoformans [9] = assay: Induction of morphological changes in Cryptococcus neoformans PFCC 93-589 assessed as excessive vacuolization at 2 ug/ml after 48 hrs by TEM analysis; type: functional, organism-based; conditions: dose 2.0 µg/ml
[10] = Cytotoxicity against human HEK293 cells assessed as cell survival at 1 times MIC incubated for 24 hrs by MTT assay; type: cell-based; conditions: read-out: Activity
[11] = Hemolytic activity in human RBC at 0.5 ug/ml incubated for 30 mins; type: ADME, cell-based, Erythrocyte; conditions: red blood cells (erythrocytes), at 0.5 µg/mL, read-out: Activity
Nakaseomyces glabratus = assay: Antifungal activity against Candida glabrata incubated for 24 hrs by broth microdilution method; type: functional
Cryptococcus neoformans [12] = assay: Inhibition of ergosterol biosynthesis in Cryptococcus neoformans PFCC 93-589 cell membrane at 1 times MIC incubated for 48 hrs by UV-visible spectrophotometric analysis; type: functional, cell membranes
[13] = Hemolytic activity in human RBC at 1 ug/ml incubated for 30 mins; type: ADME, cell-based, Erythrocyte; conditions: red blood cells (erythrocytes), at 1 µg/mL, read-out: Activity
Cryptococcus neoformans [14] = assay: Synergistic antifungal activity against Cryptococcus neoformans PFCC 93-589 assessed as fractional inhibitory concentration index in presence of fluconazole by checkerboard microtiter assay; type: functional
Candida parapsilosis = assay: Antifungal activity against Candida parapsilosis incubated for 24 hrs by broth microdilution method; type: functional; conditions: Lodderomyces parapsilosis
Aspergillus fumigatus = assay: Antifungal activity against Aspergillus fumigatus incubated for 48 hrs by broth microdilution method; type: functional
Cryptococcus neoformans [15] = assay: Antifungal activity against Cryptococcus neoformans PFCC 93-589 after 7 days in absence of sorbitol by microdilution assay; type: functional; conditions: PFCC 93-589, 168 h, time 7 day
Cryptococcus neoformans [16] = assay: Inhibition of ergosterol biosynthesis in Cryptococcus neoformans PFCC 93-589 cell membrane at 0.5 times MIC incubated for 48 hrs by UV-visible spectrophotometric analysis; type: functional, cell membranes
Cryptococcus neoformans [17] = assay: Inhibition of ergosterol biosynthesis in Cryptococcus neoformans PFCC 93-589 cell membrane assessed as ergosterol content at 1 times MIC incubated for 48 hrs by UV-visible spectrophotometric analysis (reference value: 0.134); type: functional, cell membranes
Cryptococcus neoformans [18] = assay: Antifungal activity against Cryptococcus neoformans PFCC 93-589 assessed as TOS production at 1 times MIC incubated for 10 mins measured per mg of protein by colorimetric method (reference value: 1.19 umol); type: functional
Cryptococcus neoformans [19] = assay: Antifungal activity against Cryptococcus neoformans PFCC 93-589 by broth microdilution assay; type: functional
[20] = Hemolytic activity in human RBC at 2 ug/ml incubated for 30 mins; type: ADME, cell-based, Erythrocyte; conditions: red blood cells (erythrocytes), at 2 µg/mL, read-out: Activity
Cryptococcus neoformans [21] = assay: Antifungal activity against Cryptococcus neoformans PFCC 93-589 assessed as half minimum inhibitory concentration by broth microdilution assay; type: functional
[22] = Cytotoxicity against human HEK293 cells assessed as inhibition of cell viability at 2 times MIC incubated for 24 hrs by MTT assay; type: cell-based; conditions: at 8 µg/mL, read-out: INH
Cryptococcus neoformans [23] = assay: Antifungal activity against Cryptococcus neoformans PFCC 93-589 after 2 days in presence of sorbitol by microdilution assay; type: functional; conditions: PFCC 93-589, 48 h, time 2 day
[24] = Cytotoxicity against human HEK293 cells assessed as cell survival at 0.5 times MIC incubated for 24 hrs by MTT assay; type: cell-based; conditions: read-out: Activity
Cryptococcus neoformans [25] = assay: Antifungal activity against Cryptococcus neoformans PFCC 93-589 assessed as increase in extracellular potassium leakage at 2 times MIC incubated up to 12 hrs measured per mg dry weight of cell by spectrophotometric method; type: functional; conditions: time hrs <=12
Cryptococcus neoformans [26] = assay: Downregulation of Cxt1p gene expression in Cryptococcus neoformans PFCC 93-589 assessed as fold decrease in […] at 2 ug/ml by SYBR green based RT-PCR analysis; type: functional; conditions: dose 2.0 µg/ml
Aspergillus flavus = assay: Antifungal activity against Aspergillus flavus incubated for 48 hrs by broth microdilution method; type: functional
[27] = Hemolytic activity in human RBC at 8 ug/ml incubated for 30 mins; type: ADME, cell-based, Erythrocyte; conditions: red blood cells (erythrocytes), at 8 µg/mL, read-out: Activity
Cryptococcus neoformans [28] = assay: Antifungal activity against Cryptococcus neoformans PFCC 93-589 after 7 days in presence of sorbitol by microdilution assay; type: functional; conditions: PFCC 93-589, 168 h, time 7 day
[29] = Hemolytic activity in human RBC at 4 ug/ml incubated for 30 mins; type: cell-based, Erythrocyte; conditions: red blood cells (erythrocytes), at 4 µg/mL, read-out: Activity
Cryptococcus neoformans [30] = assay: Antifungal activity against Cryptococcus neoformans PFCC 93-589 assessed as inhibition of melanin production at 0.5 times MIC incubated for 2 to 10 days; type: functional, organism-based; conditions: time 2-10 day
Aspergillus niger = assay: Antifungal activity against Aspergillus niger incubated for 48 hrs by broth microdilution method; type: functional
Candida albicans = assay: Antifungal activity against Candida albicans incubated for 24 hrs by broth microdilution method; type: functional
[31] = Cytotoxicity against human HEK293 cells assessed as cell survival at 0.25 times MIC incubated for 24 hrs by MTT assay; type: cell-based; conditions: read-out: Activity
Cryptococcus neoformans [32] = assay: Antifungal activity against Cryptococcus neoformans PFCC 93-589 in presence of fluconazole by checkerboard microtiter assay; type: functional
Cryptococcus neoformans [33] = assay: Upregulation of Lac1 gene expression in Cryptococcus neoformans PFCC 93-589 assessed as fold increase in […] at 2 ug/ml by SYBR green based RT-PCR analysis; type: functional; conditions: dose 2.0 µg/ml

For `CC[C@@H](C)[C@@H]1NC(=O)[C@@H]2CCCN2C(=O)[C@H](Cc2ccccc2)N(C)C(=O)[C@H](Cc2ccccc2)NC(=O)[C@H](C(C)C)N(C)C(=O)[C@@H]([C@H](C)CC)OC(=O)[C@H](C(C)(C)O)N(C)C(=O)[C@H](CC(C)C)NC(=O)[C@H](C(C)C)N(C)C1=O` [AUREOBASIDIN A] (cyclo(F[NMeF]P[aIle][NMeV]L[NMeVal(β-OH)][X1][NMeV])), the MIC (Cryptococcus neoformans [1]) was 8 µg/mL (≈ 7.26 µM), the Activity (Cryptococcus neoformans [2]) was “Active” and the inhibition (Cryptococcus neoformans [3]) was 80%. For the same compound, the MFC (Cryptococcus neoformans [4]) was 8 µg/mL (≈ 7.26 µM), the Activity (Cryptococcus neoformans [5]) was 1.46 nmol and the Activity (Cryptococcus neoformans [6]) was 0.095. The Activity (Cryptococcus neoformans [7]) was 3.09 nmol, the MIC (Pichia kudriavzevii) was under 2000 µg/mL and the Activity (Cryptococcus neoformans [8]) was “Active”. The MIC (Candida tropicalis) was under 2000 µg/mL, the Activity (Cryptococcus neoformans [9]) was “Active” and the viability at 24 h, 1 times MIC [10] was 75%. For the same compound, the hemolysis at 0.5 h, 0.5 ug/ml [11] was 0%, the MIC (Nakaseomyces glabratus) was under 2000 µg/mL and the inhibition (Cryptococcus neoformans [12]) was 41.8%. For the same compound, the hemolysis at 0.5 h, 1 ug/ml [13] was 0.31%, the “fractional inhibitory concentration index (FICI)” value (Cryptococcus neoformans [14]) was 0.26 and the MIC (Candida parapsilosis) was under 2000 µg/mL. For the same compound, the MIC (Aspergillus fumigatus) was over 50000 µg/mL, the MIC (Cryptococcus neoformans [15]) was 16 µg/mL (≈ 14.5 µM) and the inhibition (Cryptococcus neoformans [16]) was 29.1%. It also gave an Activity (Cryptococcus neoformans [17]) of 0.078, an Activity (Cryptococcus neoformans [18]) of 2.12 nmol and an MIC (Cryptococcus neoformans [19]) of 4 µg/mL (≈ 3.63 µM). It also gave a hemolysis at 0.5 h, 2 ug/ml [20] of 0.65%, an MIC (Cryptococcus neoformans [21]) of 2 µg/mL (≈ 1.82 µM) and a cytotoxicity at 24 h, 2 times MIC [22] of 40%. The MIC (Cryptococcus neoformans [23]) was 8 µg/mL, the viability at 24 h, 0.5 times MIC [24] was 89% and the Activity (Cryptococcus neoformans [25]) was 2.51 mM. The fold change (FC) (Cryptococcus neoformans [26]) was 0.2, the MIC (Aspergillus flavus) was over 50000 µg/mL and the hemolysis at 0.5 h, 8 ug/ml [27] was 2.4%. For the same compound, the MIC (Cryptococcus neoformans [28]) was 16 µg/mL, the hemolysis at 0.5 h, 4 ug/ml [29] was 1.35% and the Activity (Cryptococcus neoformans [30]) was “Active”. It also gave an MIC (Aspergillus niger) of 800 µg/mL (≈ 726 µM), an MIC (Candida albicans) of under 2000 µg/mL and a viability at 24 h, 0.25 times MIC [31] of 98%. It also gave an MIC (Cryptococcus neoformans [32]) of 1 µg/mL and a fold change (FC) (Cryptococcus neoformans [33]) of 11.7.
